# Assays:
# [1] = tested on: late watergrass; assay: Test Example 1: herbicidal activity, application before weed generation under submerged conditions (Table 16, symbol A); type: in vivo, late watergrass (Echinochloa oryzicola); details: amount of applied herbicide 320 g/ha
# Outline: (§1)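 Emulsion formulation, water-diluted to set dose, was put onto the flooded surface (4 cm depth, alluvial soil) the same day weeds were sown and 2.5-leaf rice transplanted. After 3 weeks at 25-30 °C under glass, each species was rated 0 (≤5% kill) to 5 (≥90% kill).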
# [2] = tested on: Japanese bulrush; assay: Test Example 1: herbicidal activity, application before weed generation under submerged conditions (Table 16, symbol B); type: in vivo, Japanese bulrush (Schoenoplectus juncoides); details: amount of applied herbicide 320 g/ha
# Outline: as §1
# [3] = tested on: oval-leafed pondweed; assay: Test Example 1: herbicidal activity, application before weed generation under submerged conditions (Table 16, symbol C); type: in vivo, oval-leafed pondweed (Monochoria vaginalis); details: amount of applied herbicide 320 g/ha
# Outline: as §1
# [4] = tested on: barnyard grass; assay: Test Example 3: herbicidal effect by foliage application, Wagner pot (Table 18, symbol H); type: in vivo, barnyard grass (Echinochloa crus-galli); details: amount of applied herbicide 320 g/ha
# Outline: (§2)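 Plants were sown in alluvial soil held under 0.1–0.5 cm standing water and grown 14 days in a greenhouse at 25–30 °C. An emulsifiable formulation, water-diluted to the set dose, was then sprayed onto the foliage, and effects were scored three weeks later using previously defined criteria.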
# [5] = tested on: Chinese sprangletop; assay: Test Example 3: herbicidal effect by foliage application, Wagner pot (Table 18, symbol D); type: in vivo, chinese sprangletop (Leptochloa chinensis); details: amount of applied herbicide 320 g/ha
# Outline: as §2
# [6] = tested on: rice flat sedge; assay: Test Example 3: herbicidal effect by foliage application, Wagner pot (Table 18, symbol E); type: in vivo, rice flat sedge (Cyperus iria); details: amount of applied herbicide 320 g/ha
# Outline: as §2
# [7] = tested on: southern crabgrass; assay: Test Example 4: herbicidal effect by soil treatment (Table 19, symbol F); type: in vivo, southern crabgrass (Digitaria ciliaris); details: amount of applied herbicide 320 g/ha
# Outline: (§3)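 Scoring uses the grading scale of an earlier test, three weeks post-application. Treatment consists of spraying a diluted emulsion formulation across the surface of sterilized diluvial soil in which seeds are buried near 1.5 cm deep; boxes are kept in a greenhouse between 25° C. and 30° C.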
# [8] = tested on: green foxtail; assay: Test Example 4: herbicidal effect by soil treatment (Table 19, symbol G); type: in vivo, green foxtail (Setaria viridis); details: amount of applied herbicide 320 g/ha
# Outline: as §3
# [9] = tested on: barnyard grass; assay: Test Example 4: herbicidal effect by soil treatment (Table 19, symbol H); type: in vivo, barnyard grass (Echinochloa crus-galli); details: amount of applied herbicide 320 g/ha
# Outline: as §3
# [10] = tested on: wild oat; assay: Test Example 4: herbicidal effect by soil treatment (Table 19, symbol I); type: in vivo, wild oat (Avena fatua); details: amount of applied herbicide 320 g/ha
# Outline: as §3
# [11] = tested on: blackgrass; assay: Test Example 4: herbicidal effect by soil treatment (Table 19, symbol J); type: in vivo, blackgrass (Alopecurus myosuroides); details: amount of applied herbicide 320 g/ha
# Outline: as §3
# [12] = tested on: Italian ryegrass; assay: Test Example 4: herbicidal effect by soil treatment (Table 19, symbol K); type: in vivo, Italian ryegrass (Lolium multiflorum); details: amount of applied herbicide 320 g/ha
# Outline: as §3
# [13] = tested on: windgrass; assay: Test Example 4: herbicidal effect by soil treatment (Table 19, symbol L); type: in vivo, windgrass (Apera spica-venti); details: amount of applied herbicide 320 g/ha
# Outline: as §3
# [14] = tested on: velvetleaf; assay: Test Example 4: herbicidal effect by soil treatment (Table 19, symbol M); type: in vivo, velvetleaf (Abutilon theophrasti); details: amount of applied herbicide 320 g/ha
# Outline: as §3
# [15] = tested on: redroot pigweed; assay: Test Example 4: herbicidal effect by soil treatment (Table 19, symbol N); type: in vivo, redroot pigweed (Amaranthus retroflexus); details: amount of applied herbicide 320 g/ha
# Outline: as §3
# [16] = tested on: lambsquarters; assay: Test Example 4: herbicidal effect by soil treatment (Table 19, symbol O); type: in vivo, lambsquarters (Chenopodium album); details: amount of applied herbicide 320 g/ha
# Outline: as §3
# [17] = tested on: chickweed; assay: Test Example 4: herbicidal effect by soil treatment (Table 19, symbol P); type: in vivo, common chickweed (Stellaria media); details: amount of applied herbicide 320 g/ha
# Outline: as §3
# [18] = tested on: persian speedwell; assay: Test Example 4: herbicidal effect by soil treatment (Table 19, symbol R); type: in vivo, Persian speedwell (Veronica persica); details: amount of applied herbicide 320 g/ha
# Outline: as §3
# [19] = tested on: southern crabgrass; assay: Test Example 5: herbicidal effect by foliage application, plastic box (Table 20, symbol F); type: in vivo, southern crabgrass (Digitaria ciliaris); details: foliage application, 320 g/ha, three weeks after application
# Outline: (§4)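 Post-emergence foliar test in sterilized diluvial soil. Compound applied as water-diluted emulsion at a predetermined rate to 14-day-old plants; evaluation at three weeks.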
# [20] = tested on: green foxtail; assay: Test Example 5: herbicidal effect by foliage application, plastic box (Table 20, symbol G); type: in vivo, green foxtail (Setaria viridis); details: foliage application, 320 g/ha, three weeks after application
# Outline: as §4
# [21] = tested on: barnyard grass; assay: Test Example 5: herbicidal effect by foliage application, plastic box (Table 20, symbol H); type: in vivo, barnyard grass (Echinochloa crus-galli); details: foliage application, 320 g/ha, three weeks after application
# Outline: as §4
# [22] = tested on: wild oat; assay: Test Example 5: herbicidal effect by foliage application, plastic box (Table 20, symbol I); type: in vivo, wild oat (Avena fatua); details: foliage application, 320 g/ha, three weeks after application
# Outline: as §4
# [23] = tested on: blackgrass; assay: Test Example 5: herbicidal effect by foliage application, plastic box (Table 20, symbol J); type: in vivo, blackgrass (Alopecurus myosuroides); details: foliage application, 320 g/ha, three weeks after application
# Outline: as §4
# [24] = tested on: Italian ryegrass; assay: Test Example 5: herbicidal effect by foliage application, plastic box (Table 20, symbol K); type: in vivo, Italian ryegrass (Lolium multiflorum); details: foliage application, 320 g/ha, three weeks after application
# Outline: as §4
# [25] = tested on: windgrass; assay: Test Example 5: herbicidal effect by foliage application, plastic box (Table 20, symbol L); type: in vivo, windgrass (Apera spica-venti); details: foliage application, 320 g/ha, three weeks after application
# Outline: as §4
# [26] = tested on: velvetleaf; assay: Test Example 5: herbicidal effect by foliage application, plastic box (Table 20, symbol M); type: in vivo, velvetleaf (Abutilon theophrasti); details: foliage application, 320 g/ha, three weeks after application
# Outline: as §4
# [27] = tested on: lambsquarters; assay: Test Example 5: herbicidal effect by foliage application, plastic box (Table 20, symbol O); type: in vivo, lambsquarters (Chenopodium album); details: foliage application, 320 g/ha, three weeks after application
# Outline: as §4
# [28] = tested on: false cleavers; assay: Test Example 5: herbicidal effect by foliage application, plastic box (Table 20, symbol Q); type: in vivo, false cleavers (Galium spurium); details: foliage application, 320 g/ha, three weeks after application
# Outline: as §4
# [29] = tested on: persian speedwell; assay: Test Example 5: herbicidal effect by foliage application, plastic box (Table 20, symbol R); type: in vivo, Persian speedwell (Veronica persica); details: foliage application, 320 g/ha, three weeks after application
# Outline: as §4
# [30] = tested on: redroot pigweed; assay: Test Example 5: herbicidal effect by foliage application, plastic box (Table 20, symbol N); type: in vivo, redroot pigweed (Amaranthus retroflexus); details: foliage application, 320 g/ha, three weeks after application
# Outline: as §4
# [31] = tested on: chickweed; assay: Test Example 5: herbicidal effect by foliage application, plastic box (Table 20, symbol P); type: in vivo, common chickweed (Stellaria media); details: foliage application, 320 g/ha, three weeks after application
# Outline: as §4
structure (smiles),measurement,setting,value
CCOc1cc(F)ccc1-c1oc2ccc(C)cc2c1-c1c(O)c(C)nn(C)c1=O [9-011],"Herbicidal effect, A: late watergrass",[1],3 (Herbicidal rate of 40% or more and less than 70%)
same,"Herbicidal effect, B: Japanese bulrush",[2],2 (Herbicidal rate of 20% or more and less than 40%)
same,"Herbicidal effect, C: oval-leafed pondweed",[3],1 (Herbicidal rate of 5% or more and less than 20%)
same,"Herbicidal effect on H (barnyard grass), foliage application",[4],5 (Herbicidal rate of 90% or more (almost completely withered))
same,"Herbicidal effect on D (Chinese sprangletop), foliage application",[5],0 (Herbicidal rate of 5% or less (almost no effect))
same,"Herbicidal effect on E (rice flat sedge), foliage application",[6],4 (Herbicidal rate of 70% or more and less than 90%)
same,"F: southern crabgrass, herbicidal effect grade",[7],2 (Herbicidal rate of 20% or more and less than 40%)
same,"G: green foxtail, herbicidal effect grade",[8],0 (Herbicidal rate of 5% or less (almost no effect))
same,"H: barnyard grass, herbicidal effect grade",[9],0 (Herbicidal rate of 5% or less (almost no effect))
same,"I: wild oat, herbicidal effect grade",[10],0 (Herbicidal rate of 5% or less (almost no effect))
same,"J: blackgrass, herbicidal effect grade",[11],2 (Herbicidal rate of 20% or more and less than 40%)
same,"K: Italian ryegrass, herbicidal effect grade",[12],0 (Herbicidal rate of 5% or less (almost no effect))
same,"L: windgrass, herbicidal effect grade",[13],3 (Herbicidal rate of 40% or more and less than 70%)
same,"M: velvetleaf, herbicidal effect grade",[14],0 (Herbicidal rate of 5% or less (almost no effect))
same,"N: redroot pigweed, herbicidal effect grade",[15],3 (Herbicidal rate of 40% or more and less than 70%)
same,"O: lambsquarters, herbicidal effect grade",[16],4 (Herbicidal rate of 70% or more and less than 90%)
same,"P: chickweed, herbicidal effect grade",[17],1 (Herbicidal rate of 5% or more and less than 20%)
same,"R: persian speedwell, herbicidal effect grade",[18],3 (Herbicidal rate of 40% or more and less than 70%)
same,herbicidal effect on southern crabgrass (F),[19],2 (Herbicidal rate of 20% or more and less than 40%)
same,herbicidal effect on green foxtail (G),[20],2 (Herbicidal rate of 20% or more and less than 40%)
same,herbicidal effect on barnyard grass (H),[21],4 (Herbicidal rate of 70% or more and less than 90%)
same,herbicidal effect on wild oat (I),[22],3 (Herbicidal rate of 40% or more and less than 70%)
same,herbicidal effect on blackgrass (J),[23],4 (Herbicidal rate of 70% or more and less than 90%)
same,herbicidal effect on Italian ryegrass (K),[24],0 (Herbicidal rate of 5% or less (almost no effect))
same,herbicidal effect on windgrass (L),[25],1 (Herbicidal rate of 5% or more and less than 20%)
same,herbicidal effect on velvetleaf (M),[26],3 (Herbicidal rate of 40% or more and less than 70%)
same,herbicidal effect on lambsquarters (O),[27],4 (Herbicidal rate of 70% or more and less than 90%)
same,herbicidal effect on false cleavers (Q),[28],4 (Herbicidal rate of 70% or more and less than 90%)
same,herbicidal effect on persian speedwell (R),[29],4 (Herbicidal rate of 70% or more and less than 90%)
Cc1nn(C)c(=O)c(-c2c(-c3ccc(OC(C)C)cc3)sc3cc(F)ccc23)c1O [3-019],"Herbicidal effect, A: late watergrass",[1],3 (Herbicidal rate of 40% or more and less than 70%)
same,"Herbicidal effect, B: Japanese bulrush",[2],3 (Herbicidal rate of 40% or more and less than 70%)
same,"Herbicidal effect, C: oval-leafed pondweed",[3],3 (Herbicidal rate of 40% or more and less than 70%)
same,herbicidal effect on H: barnyard grass,[4],3 (Herbicidal rate of 40% or more and less than 70%)
same,herbicidal effect on D: Chinese sprangletop,[5],0 (Herbicidal rate of 5% or less (almost no effect))
same,herbicidal effect on E: rice flat sedge,[6],3 (Herbicidal rate of 40% or more and less than 70%)
same,"herbicidal effect, F: southern crabgrass",[7],0 (Herbicidal rate of 5% or less (almost no effect))
same,"herbicidal effect, G: green foxtail",[8],2 (Herbicidal rate of 20% or more and less than 40%)
same,"herbicidal effect, H: barnyard grass",[9],0 (Herbicidal rate of 5% or less (almost no effect))
same,"herbicidal effect, I: wild oat",[10],0 (Herbicidal rate of 5% or less (almost no effect))
same,"herbicidal effect, J: blackgrass",[11],0 (Herbicidal rate of 5% or less (almost no effect))
same,"herbicidal effect, K: Italian ryegrass",[12],0 (Herbicidal rate of 5% or less (almost no effect))
same,"herbicidal effect, L: windgrass",[13],0 (Herbicidal rate of 5% or less (almost no effect))
same,"herbicidal effect, M: velvetleaf",[14],0 (Herbicidal rate of 5% or less (almost no effect))
same,"herbicidal effect, N: redroot pigweed",[15],3 (Herbicidal rate of 40% or more and less than 70%)
same,"herbicidal effect, O: lambsquarters",[16],3 (Herbicidal rate of 40% or more and less than 70%)
same,"herbicidal effect, P: chickweed",[17],0 (Herbicidal rate of 5% or less (almost no effect))
same,"F: southern crabgrass, herbicidal effect grade",[19],0 (Herbicidal rate of 5% or less (almost no effect))
same,"G: green foxtail, herbicidal effect grade",[20],4 (Herbicidal rate of 70% or more and less than 90%)
same,"H: barnyard grass, herbicidal effect grade",[21],3 (Herbicidal rate of 40% or more and less than 70%)
same,"I: wild oat, herbicidal effect grade",[22],0 (Herbicidal rate of 5% or less (almost no effect))
same,"J: blackgrass, herbicidal effect grade",[23],3 (Herbicidal rate of 40% or more and less than 70%)
same,"K: Italian ryegrass, herbicidal effect grade",[24],3 (Herbicidal rate of 40% or more and less than 70%)
same,"L: windgrass, herbicidal effect grade",[25],3 (Herbicidal rate of 40% or more and less than 70%)
same,"M: velvetleaf, herbicidal effect grade",[26],3 (Herbicidal rate of 40% or more and less than 70%)
same,"N: redroot pigweed, herbicidal effect grade",[30],5 (Herbicidal rate of 90% or more (almost completely withered))
same,"O: lambsquarters, herbicidal effect grade",[27],0 (Herbicidal rate of 5% or less (almost no effect))
same,"P: chickweed, herbicidal effect grade",[31],5 (Herbicidal rate of 90% or more (almost completely withered))
same,"Q: false cleavers, herbicidal effect grade",[28],4 (Herbicidal rate of 70% or more and less than 90%)
same,"R: persian speedwell, herbicidal effect grade",[29],5 (Herbicidal rate of 90% or more (almost completely withered))
